Assay results taken from patent publication US20040006236A1, “Diaminopropionic acid derivatives” (priority 1999, published 2004).
Where a name gives a salt, the structure may show the parent alone.

target: T1, ICAM-1 binding to immobilized Mac-1 (Homo sapiens, UniProt P05107+P11215); experiment: Mac-1/ICAM-1 screening assay (solid-phase ELISA); conditions: Mac-1/ICAM-1 Protein-Protein Assay IC50
T1 construct: made in house; host or cells: transfected 293 cells (Mac-1)
Experimental: (b) Mac-1/ICAM-1 screening test: Mac-1/ICAM-1 antagonist activity, defined as the ability to compete with ICAM-1 binding to immobilized Mac-1, was quantitated by a solid-phase ELISA.
(§1) Membrane-bound Mac-1 derived from transfected 293 cells was coated onto 96-well microtiter plates (50 μL/well, 3 μg/mL Mac-1 in 20 mM Hepes, pH 7.2/0.14 M NaCl/1 mM MnCl2) overnight at 4° C. The plates were blocked with 100 μL/well of 0.5% BSA in 20 mM Hepes, pH 7.2/0.14 M NaCl/1 mM MnCl2 at 37° C. for 1 h and washed 3 times (120 μL each) with Binding Buffer (20 mM Hepes, pH 7.2/0.14 M NaCl/1 mM MnCl2/0.05% Tween 20). Test compounds were dissolved in 100% DMSO and diluted 1:50 in Binding Buffer plus 10% DMSO. A series of 1:4 dilutions were performed for each compound (concentration range, 0.12 nM-20 μM). Each dilution (25 μL/well) was added to the plates, followed by 25 μL/well of 5 dICAM-Ig (40 μg/mL in Binding Buffer). The plates were shaken vigorously for 1 min (room temperature), followed by gentle agitation for 2 h (37° C.), and washed with Binding Buffer (3 times, 120 μL each). HRP-conjugated goat anti-human IgG(Fc-specific) antibody (0.125 μg/mL in Binding Buffer plus 0.05% BSA) was added to each well (50 μL/well), followed by incubation for 1 h at 37° C. The plates were then washed 3 times with Binding Buffer (120 μL each). TMB solution (100 μL/well) was added to each well for color development for 10 min. The reaction was stopped with 1 M H3PO4 (100 μL/well) and the plates were read at 450 nm. The inhibitory activities of test compounds were determined by the IC50s.
as §1, with “Mac-1/ICAM-1 antagonist activity, defined as the ability to compete with ICAM-1 binding to immobilized Mac-1, was quantitated by a solid-phase ELISA. Membrane-bound” for “Membrane-bound”, “5dICAM-Ig” for “5 dICAM-Ig”, “nm.” for “nm. The inhibitory activities of test compounds were determined by the IC50s.”

T1 sequence (P05107 23-769, other chains not shown): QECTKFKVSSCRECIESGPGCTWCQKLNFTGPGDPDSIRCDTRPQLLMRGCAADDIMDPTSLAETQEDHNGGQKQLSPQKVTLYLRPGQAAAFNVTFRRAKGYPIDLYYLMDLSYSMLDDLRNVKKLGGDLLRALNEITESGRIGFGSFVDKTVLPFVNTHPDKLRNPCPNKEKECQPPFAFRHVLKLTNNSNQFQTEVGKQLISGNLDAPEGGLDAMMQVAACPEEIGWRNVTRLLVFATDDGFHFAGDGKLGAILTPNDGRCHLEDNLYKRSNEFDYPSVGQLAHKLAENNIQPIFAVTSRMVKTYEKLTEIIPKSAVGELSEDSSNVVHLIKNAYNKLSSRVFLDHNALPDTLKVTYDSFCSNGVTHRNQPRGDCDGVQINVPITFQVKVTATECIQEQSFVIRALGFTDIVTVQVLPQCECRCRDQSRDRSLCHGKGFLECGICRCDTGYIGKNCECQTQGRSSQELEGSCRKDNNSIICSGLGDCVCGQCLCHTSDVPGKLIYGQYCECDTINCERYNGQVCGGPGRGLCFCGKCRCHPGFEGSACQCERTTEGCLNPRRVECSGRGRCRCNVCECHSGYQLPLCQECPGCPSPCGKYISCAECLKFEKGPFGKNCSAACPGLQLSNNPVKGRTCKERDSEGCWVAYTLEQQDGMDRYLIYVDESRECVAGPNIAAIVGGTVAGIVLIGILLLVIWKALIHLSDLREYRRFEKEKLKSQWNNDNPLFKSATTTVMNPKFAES

Row | Compound | IC50 [nM]
1 | O=C(Cc1ccc([N+](=O)[O-])cc1[N+](=O)[O-])NC[C@H](NC(=O)c1ccc(C(=O)NCc2cccc(O)c2)cc1Cl)C(=O)O [Example 83] | 58
2 | O=C(NCc1cccc(O)c1)c1ccc(C(=O)N[C@@H](CNC(=O)c2cc([N+](=O)[O-])cc([N+](=O)[O-])c2)C(=O)O)c(Cl)c1 [Example 129] | 37

same assay, conditions: read-out: Mac-1/ICAM-1 Protein-Protein Assay IC50

Row | IC50 [nM] | Compound
3 | 94 | O=C(CC1CCCCC1)NC[C@H](NC(=O)c1ccc(C(=O)NCc2cccc(O)c2)cc1Cl)C(=O)O [Example 78]
4 | 74 | O=C(Cc1ccccc1)NC[C@H](NC(=O)c1ccc(C(=O)NCc2cccc(O)c2)cc1Cl)C(=O)O [Example 79]
5 | 134 | COc1ccc(CC(=O)NC[C@H](NC(=O)c2ccc(C(=O)NCc3cccc(O)c3)cc2Cl)C(=O)O)cc1 [Example 80]
6 | 58 | O=C(Cc1ccc([N+](=O)[O-])cc1)NC[C@H](NC(=O)c1ccc(C(=O)NCc2cccc(O)c2)cc1Cl)C(=O)O [Example 81]
7 | 62 | O=C(Cc1cccc(C(F)(F)F)c1)NC[C@H](NC(=O)c1ccc(C(=O)NCc2cccc(O)c2)cc1Cl)C(=O)O [Example 82]
8 | 60 | O=C(Cc1cccs1)NC[C@H](NC(=O)c1ccc(C(=O)NCc2cccc(O)c2)cc1Cl)C(=O)O [Example 84]
9 | 179 | O=C(NCc1cccc(O)c1)c1ccc(C(=O)N[C@@H](CNC(=O)C(c2ccccc2)c2ccccc2)C(=O)O)c(Cl)c1 [Example 86]
10 | 87 | O=C(Cc1ccc2ccccc2c1)NC[C@H](NC(=O)c1ccc(C(=O)NCc2cccc(O)c2)cc1Cl)C(=O)O [Example 87]
11 | 273 | O=C(CC1c2ccccc2-c2ccccc21)NC[C@H](NC(=O)c1ccc(C(=O)NCc2cccc(O)c2)cc1Cl)C(=O)O [Example 88]
12 | 464 | O=C(C[n+]1csc2ccccc21)NC[C@H](NC(=O)c1ccc(C(=O)NCc2cccc(O)c2)cc1Cl)C(=O)O [Example 89]
13 | 174 | O=C(CSc1ncccn1)NC[C@H](NC(=O)c1ccc(C(=O)NCc2cccc(O)c2)cc1Cl)C(=O)O [Example 91]
14 | 48 | CC(C)(C)C(=O)NC[C@H](NC(=O)c1ccc(C(=O)NCc2cccc(O)c2)cc1Cl)C(=O)O [Example 92]
15 | 57 | O=C(NCc1cccc(O)c1)c1ccc(C(=O)N[C@@H](CNC(=O)C23CC4CC(CC(C4)C2)C3)C(=O)O)c(Cl)c1 [Example 93]
16 | 42 | O=C(CCc1ccccc1)NC[C@H](NC(=O)c1ccc(C(=O)NCc2cccc(O)c2)cc1Cl)C(=O)O [Example 94]
17 | 116 | O=C(NCc1cccc(O)c1)c1ccc(C(=O)N[C@@H](CNC(=O)c2cnccn2)C(=O)O)c(Cl)c1 [Example 170]
18 | 222 | O=C(NCc1cccc(O)c1)c1ccc(C(=O)N[C@@H](CNC(=O)c2cnc3ccccc3c2)C(=O)O)c(Cl)c1 [Example 183]
19 | 56 | O=C(NCc1cccc(O)c1)c1ccc(C(=O)N[C@@H](CNC(=O)c2cc(=O)c3ccccc3o2)C(=O)O)c(Cl)c1 [Example 187]
20 | 40 | O=C(NCc1cccc(O)c1)c1ccc(C(=O)N[C@@H](CNC(=O)c2ccc3c(c2)S(=O)(=O)c2ccccc2C3=O)C(=O)O)c(Cl)c1 [Example 192]
21 | 49 | CC(=O)NC[C@H](NC(=O)c1ccc(C(=O)NCc2cccc(O)c2)cc1Cl)C(=O)O [Example 193]
22 | 36 | CC(C)C(=O)NC[C@H](NC(=O)c1ccc(C(=O)NCc2cccc(O)c2)cc1Cl)C(=O)O [Example 194]
23 | 47 | CC(C)CC(=O)NC[C@H](NC(=O)c1ccc(C(=O)NCc2cccc(O)c2)cc1Cl)C(=O)O [Example 195]
24 | 38 | CSCC[C@H](N)C(=O)NC[C@H](NC(=O)c1ccc(C(=O)NCc2cccc(O)c2)cc1Cl)C(=O)O [Example 197]

Row | IC50 [nM] | Compound
25 | 48 | NCCCC[C@H](N)C(=O)NC[C@H](NC(=O)c1ccc(C(=O)NCc2cccc(O)c2)cc1Cl)C(=O)O [Example 198]
26 | 36 | N[C@@H](Cc1ccccc1)C(=O)NC[C@H](NC(=O)c1ccc(C(=O)NCc2cccc(O)c2)cc1Cl)C(=O)O [Example 199]
27 | 33 | NC(=O)C[C@H](N)C(=O)NC[C@H](NC(=O)c1ccc(C(=O)NCc2cccc(O)c2)cc1Cl)C(=O)O [Example 200]
28 | 49 | N[C@@H](Cc1c[nH]c2ccccc12)C(=O)NC[C@H](NC(=O)c1ccc(C(=O)NCc2cccc(O)c2)cc1Cl)C(=O)O [Example 201]
29 | 37 | N[C@@H](CCC(=O)NC[C@H](NC(=O)c1ccc(C(=O)NCc2cccc(O)c2)cc1Cl)C(=O)O)C(=O)O [Example 202]
30 | 319 | O=C(NC[C@H](NC(=O)c1c(Cl)cccc1Cl)C(=O)O)c1ccccc1 [Example 219]
31 | 82 | O=C(NC[C@H](NC(=O)c1c(Cl)cccc1Cl)C(=O)O)c1ccc(Br)s1 [Example 223]
32 | 377 | O=C(NC[C@H](NC(=O)c1c(F)cccc1Cl)C(=O)O)c1ccc(Br)s1 [Example 224]
33 | 273 | O=C(NC[C@H](NC(=O)c1c(F)cccc1Cl)C(=O)O)c1ccc2[nH]nnc2c1 [Example 226]
34 | 41 | Cc1nnsc1C(=O)NC[C@H](NC(=O)c1ccc(C(=O)NCc2cccc(O)c2)cc1Cl)C(=O)O [Example 255]
35 | 26 | COc1c(C(=O)NC[C@H](NC(=O)c2ccc(C(=O)NCc3cccc(O)c3)cc2Cl)C(=O)O)csc1Cl [Example 258, N-[2-chloro-4-[[[(3-hydroxyphenyl)methyl]amino]carbonyl]benzoyl]-3-(5-chloro-4-methoxythiophene-3-carbonyl)amino-L-alanine]
36 | 27 | NC1(C(=O)NC[C@H](NC(=O)c2ccc(C(=O)NCc3cccc(O)c3)cc2Cl)C(=O)O)CCCC1 [Example 263]
37 | 25 | N[C@H]1CC[C@@H](C(=O)NC[C@H](NC(=O)c2ccc(C(=O)NCc3cccc(O)c3)cc2Cl)C(=O)O)CC1 [Example 264]
38 | 306 | Nc1cccn(CC(=O)NC[C@H](NC(=O)c2ccc(C(=O)NCc3cccc(O)c3)cc2Cl)C(=O)O)c1=O [Example 266]
39 | 81 | O=C(O)c1cccc(C(=O)NC[C@H](NC(=O)c2ccc(C(=O)NCc3cccc(O)c3)cc2Cl)C(=O)O)c1 [Example 297]
40 | 298 | O=C(O)CCCC(=O)NC[C@H](NC(=O)c1ccc(C(=O)NCc2cccc(O)c2)cc1Cl)C(=O)O [Example 298]
41 | 19 | O=C(NCc1cccc(O)c1)c1ccc(C(=O)N[C@@H](CNC(=O)c2cccs2)C(=O)O)c(Cl)c1 [Example 305, N-[2-chloro-4-[[[(3-hydroxyphenyl)methyl]amino]carbonyl]benzoyl]-3-(thiophene-2-carbonyl)amino-L-alanine, sodium salt]
42 | 24 | O=C(NCc1cccc2[nH]ccc12)c1ccc(C(=O)N[C@@H](CNC(=O)c2ccoc2)C(=O)O)c(Cl)c1 [Example 316]
43 | 36 | Cc1ccc(C(=O)NC[C@H](NC(=O)c2ccc(C(=O)NCc3cccc4[nH]ccc34)cc2Cl)C(=O)O)s1 [Example 317]
44 | 98 | O=C(NCc1cccc2c1CCN2)c1ccc(C(=O)N[C@@H](CNC(=O)c2cccs2)C(=O)O)c(Cl)c1 [Example 318, 3-(thiophene-2-carbonyl)amino-N-[2-chloro-4-[[(2,3-dihydro-1H-indol-4-ylmethyl)amino]carbonyl]benzoyl]-L-alanine]
45 | 43 | O=C(CCc1cccc(O)c1)c1ccc(C(=O)N[C@@H](CNC(=O)c2cccs2)C(=O)O)c(Cl)c1 [Example 319, N-[2-chloro-4-[1-oxo-3-(3-hydroxyphenyl)propyl]benzoyl]-3-(thiophene-2-carbonyl)amino-L-alanine]
46 | 76 | O=C(NC[C@H](NC(=O)c1ccc(-n2nnnc2NCc2cccc(O)c2)cc1Cl)C(=O)O)c1cccs1 [Example 321]
